Measurements from the NIST ThermoML archive (doi:10.1016/j.tca.2005.12.008).

Experiment: molar heat capacity at constant pressure
Conditions: 101.33 kPa, Crystal, Small (less than 1 g) adiabatic calorimetry

O.O=C([O-])[C@H](O)[C@@H](O)CO.O=C([O-])[C@H](O)[C@@H](O)CO.[Cu+2] [copper(II) (2R,3S)-2,3,4-trihydroxybutanoate hydrate]
Conditions | molar heat capacity at constant pressure [J/K/mol]
77.95 K | 157.12
78.77 K | 158.43
79.58 K | 159.75
81.05 K | 161.91
83.23 K | 165.7
85.3 K | 168.87
87.33 K | 172.05
89.3 K | 175.55
91.24 K | 178.89
93.14 K | 182.28
95.01 K | 185.29
96.85 K | 188.44
98.65 K | 191.21
100.44 K | 194.62
102.18 K | 197.16
103.92 K | 200.13
105.63 K | 203.01
107.32 K | 205.34
109 K | 207.51
110.66 K | 210.17
112.29 K | 213.09
113.91 K | 215.33
115.53 K | 217.99
117.12 K | 220.64
118.7 K | 222.67
120.28 K | 224.56
121.83 K | 227.52
123.37 K | 230.1
124.9 K | 231.86
127.77 K | 236.46
132.03 K | 242.38
136.29 K | 248.21
140.39 K | 253.18
144.49 K | 258.87
148.5 K | 263.42
152.44 K | 269.25
156.37 K | 273.65
160.22 K | 278.91
163.99 K | 283.6
167.76 K | 289.57
171.53 K | 294.4
175.22 K | 298.81
178.91 K | 303.93
182.51 K | 308.62
186.04 K | 314.59
189.63 K | 319.74
193.17 K | 324.58
196.61 K | 329.37
200.05 K | 333.92
203.48 K | 338.93
206.76 K | 344.03
210.14 K | 349.72
213.41 K | 353.68
216.7 K | 358.82
219.87 K | 365.27
223.07 K | 370.33
226.27 K | 374.9
229.39 K | 380.28
232.43 K | 385.56
235.45 K | 390.94
238.48 K | 396.17
241.43 K | 401.58
244.3 K | 406.42
247.25 K | 410.96
250.17 K | 415.09
253.07 K | 420.05
255.94 K | 424.32
258.81 K | 430.57
261.59 K | 435.83
264.38 K | 439.95
267.25 K | 446.35
269.95 K | 449.9
272.74 K | 455.45
275.44 K | 460.56
278.15 K | 465.27
280.87 K | 471.63
283.46 K | 476.96
286.11 K | 481.85
288.64 K | 486.29
291.26 K | 492.12
293.8 K | 496.38
296.18 K | 501.64
298.72 K | 506.76
301.34 K | 511.59
304.73 K | 517.6
308.01 K | 525.08
311.68 K | 533.37
315.35 K | 539.96
318.3 K | 546.62
321.22 K | 553.21
324.17 K | 560.99
327.09 K | 567.58
330.19 K | 573.7
333.38 K | 581.34
336.12 K | 586.57
338.87 K | 593.18
341.62 K | 602.58
344.26 K | 609.21
346.73 K | 617.4
349.06 K | 625.08
351.28 K | 633.61
353.44 K | 639.41
355.51 K | 652.09
